The record followed here is US9861604B2, “Coriolus versicolor extracts, methods of isolating biologically-active compounds, and uses thereof” (priority 2012, dated 2018).

What all share (type): cell-based, human
The test system of series [1] is MMP-3. As to the kind of experiment: TNF-α induced MMP-3 mRNA level in T98G cells (TaqMan). Particulars: 10, 25 and 50 μg/ml 18 hr, then TNF-α 10 ng/ml 3 hr, FIG. 16. As to the method:
Glioblastoma (T98G, brain cells) cells were pretreated with different batches of ethanol extract or purified compounds of C. versicolor for 18 hr, and then treated with recombinant human TNF-α (10 ng/ml) for another 3 hr. Total RNA extraction was performed by TRIzol reagent (Invitrogen) according to the manufacturer's instructions. Total RNA was reverse transcribed by Superscript II reverse transcriptase (Invitrogen) with oligo (dT) primers. MMP-3 mRNA levels were analyzed by TaqMan Gene Expression Assays (Applied Biosystems).
Briefly, glioblastoma (T98G; brain cells) cells were pretreated with MPUB-EtOH at different concentrations (1, 10 and 50 ug/ml) for 18 hrs, and then treated with recombinant human TNFα (10 ng/ml) for 3 hrs. MMP-3 mRNA levels were analyzed by TaqMan Gene Expression Assays. […] A p value of <0.05 (*) was considered statistically significant.
On the technique in general: In qPCR the cycle at which signal appears reflects the starting amount.

Series [2] deals with MMP-3. Description: TNF-α induced MMP-3 protein expression in T98G cells (ELISA). Particulars: 10, 25 and 50 μg/ml 18 hr, then TNF-α 10 ng/ml 24 hr, FIG. 17. As to the method:
T98G cells were pretreated with different batches of ethanol extract of C. versicolor for 18 hr, and then treated with recombinant human TNF-α (10 ng/ml) for another 24 hr. Protein levels of MMP-3 in the cell culture supernatants were analyzed by enzyme-linked immunosorbent assays (ELISA) using commercially available assay kits (R&D Systems).
A general note: An ELISA detects its analyte on a solid surface through an enzyme-linked reagent.

The test system of another series is T98G cells. As to the kind of experiment: MTT assay on T98G cells. Particulars: 10, 25 and 50 μg/ml, time course of 48 hr, FIG. 19. The method, then: T98G cells were incubated with different batches of ethanol extract or purified compounds of C. versicolor for 48 hr. After treatment, MTT (3-[4,5-dimethylthiazol-2-yl]-2,5-di-phenyltetrazolim bromide) (Sigma) was added to the medium at a final concentration of 1 mg/ml and followed by 2 hr incubation at 37° C. MTT formazan formed was then dissolved in 200 μl of isopropanol and the absorbance of the supernatant was measured at 570 nm using a 96-well microplate reader.
For orientation: Tetrazolium dyes change colour on reduction, which living cells bring about.

Series [3] has as its system Glioblastoma (T98G) cells. Description: Matrigel Invasion Chamber tumor cell invasion assay, T98G. Particulars: 25 μg/ml 18 hr, invasion 24 hr; FIG. 22. As to the method: Cell invasiveness was studied using BD BioCoat™ Matrigel™ Invasion Chamber (BD Biosciences). T98G cells suspended in MEM containing 1% FBS, 1% penicillin-streptomycin and 1% sodium pyruvate were seeded overnight on top of gel in each chamber. Bicarbonate based culture medium was added into the bottom wells of the plate. After incubation, the cells were treated with ethanol extract of C. versicolor/Cove-1 for 18 hr. The chambers were then transferred to a new plate with each well containing MEM supplemented with 10% FBS. Cells were allowed to invade through the matrices at 37° C. for another 24 hr. After the invasion assay, invaded cells on the lower surface of the chamber were fixed with 100% methanol for 2 min, and stained with Crystal Violet. The number of invading cells was quantified by counting under a light microscope.
Specifically, the effect of C. versicolor on cancer cell invasiveness was studied using a Matrigel Invasion Chamber. […] The number of invading cells was quantified by counting under a light microscope.
Specifically, the effect of 9-KODE methyl ester on cell invasiveness was studied using Matrigel Invasion Chamber. Glioblastoma (T98G) cells were treated with 9-KODE methyl ester for 18 hr, and then the cells were allowed to invade through the matrices for another 24 hr. The number of invading cells was quantified by counting under a light microscope.

In the case of `CCCCC/C=C/C=C/C(=O)CCCCCCCC(=O)OC` [Cove-1, 9-oxo-10E,12E-octadecadienoic acid methyl ester], in the series with MMP-3 [1], the “TNF-α induced MMP-3 mRNA level” value was “suppressed TNF-α induced MMP-3 mRNA level”. For the same molecule, in the series with MMP-3 [2], the “TNF-α induced MMP-3 protein expression” value was “inhibited TNF-α induced MMP-3 protein expression”. Besides, in the series on T98G cells, the “metabolic activities of the cells (MTT)” value was “no significant differences in the metabolic activities”. The “T98G cell invasiveness (number of invading cells)” value in series [3] was “reduced the invasiveness of T98G significantly”.
